The values below come from PMC11016601, “Exploring the bioaccessibility and intestinal absorption of major classes of pure phenolic compounds using in vitro simulated gastrointestinal digestion” (Heliyon, 2024).

In brackets after ≈: the same amount, converted by molar mass. Several values for one entry are separate records, joined by “and”; a condition that tells them apart may be missing. Identical values can stand only once. Like-named read-outs stand apart in the source and are kept apart here. Marks after values point to notes of the source that are not given here.

The nature of data set [1]: In vitro simulated gastrointestinal digestion (SGD, INFOGEST 2.0): concentration and bioaccessibility by UHPLC-DAD-MSn. The conditions noted are these: for Bioaccessibility (%), initial solution (IS): reference. On the procedure:
Preliminary solubility tests in different solvents, namely water, sodium phosphate buffer (26.8 mM, pH 6.1), ethanol, and also a mixture of ethanol with both water and sodium phosphate buffer, were carried out for each PC (data not shown), to prevent erroneous data arising from compounds precipitation. Ethanol percentages used in these preliminary solubility tests were 10, 15, and 20% (v/v).
Each PC solubilized in ethanol:water (15% v/v) was then submitted to an in vitro SGD (INFOGEST 2.0), according to a standardized protocol (Fig. 2). In order to determine whether the interaction between the compounds and enzymes led to an underestimation of their content, each PC solution was submitted to the same digestion procedure, replacing the enzyme solutions with water, which were designed as controls, henceforth this will be the term used. Each sample and control were submitted to three independent in vitro digestion simulations, and after each digestion phase, a sample/control was collected and further analyzed and quantified by UHPLC-DAD-MSn.
(§1) Mouth digestion of each PC solution (1 mL) was diluted in 0.8 mL of simulated salivary fluid (SSF) and α-amylase (75 U mL-1). Then, the mixture was incubated for 2 min at 37 °C under agitation (200 rpm). In order to start gastric digestion, pH was adjusted to 3.0 using 1 M aqueous HCl and then, a pepsin solution (2000 U mL-1) and simulated gastric fluid (SGF) were added. Subsequently, the mixture was incubated for 2h, at 37 °C and 130 rpm orbital agitation for the stomach digestion. Finally, the small intestine digestion simulation was performed after pH adjustment to 7.0 using 1 M aqueous […] and the addition of pancreatin (100 U mL-1), bile salts solution (10 mM) and simulated intestinal fluid (SIF), during 2 h, at 37 °C with 45 rpm orbital agitation. Natural small intestine absorption was also simulated, by placing the remaining sample in a dialysis membrane, and immersed in distilled water overnight at room temperature.
At each sampling point, an aliquot (0.5 mL) from each of the three replicates was collected. The enzymatic activity was stopped immediately by adding pure methanol to each aliquot (1:1, v/v) to promote enzyme precipitation and subsequently centrifuged at 10 000 g and 4 °C for 5 min. The supernatants were filtered with a 0.2 μm nylon filter. To determine the concentration of each sample or control, it was considered the following dilution factor – 1:2, 1:4 and 1:8 for oral, gastric and intestinal digestion phase, respectively.
The bioaccessibility percentage (B%) of each PC was calculated using equation (1):(1) B(%)=[DS]/[IS]×100 where IS is the initial concentration of PCs in ethanol:water (15% v/v) solutions, DS is the concentration of each collected sample or control (without enzymes).
(§2) The values of B% and IA% were the average of the three replicates performed, with the calculated standard deviation.
PCs were analyzed in a UHPLC system equipped with a variable loop Accela autosampler (set at 16 °C), an Accela 600 LC pump, and an Accela 80 Hz photo diode array detector (DAD) (Thermo Fisher Scientific, San Jose, CA, USA). Each sample was prepared in methanol:water (1:1, v/v) and filtered through a 0.2 μm nylon syringe filter. […] The mobile phase was composed of acetonitrile (A) and water:acetonitrile (99:1, v/v) (B), both with 0.1 % of formic acid. The gradient elution was performed as follows: 0–1min: 99% B; 1–17 min: 99-73% B, 17–20 min: 73-0% B, 20–25 min: 0–99% B, followed by re-equilibration of the column at 99% B for 4 min.

Data set [2] relates to Caco-2 cell monolayers. To be noted: cited from earlier work; for permeability class from Papp, apical-to-basolateral direction: Caco-2 monolayers. (Caco-2 monolayers are a common model of the intestinal barrier.)
Data set [3] can be described thus: Simulation of intestinal absorption using a dialysis membrane (3 kDa) after in vitro SGD.
Description: HPLC-grade methanol, water, and acetonitrile were supplied by Fisher Scientific Chemicals. The enzymes α-amylase (A1031), pepsin from porcine stomach mucosa (P7012), pancreatin from porcine pancreas (P7545), and bile salts (B863) were purchased from Sigma-Aldrich (Taufkirchen, Germany). The rabbit gastric extract (RGE15) with gastric lipase activity was purchased from Lipolytech (Marseille, France). The ethanol was purchased from Merck (Algés, Portugal). A dialysis membrane with a molecular pore size of 3 kDa was purchased from Spectra/Pro (Spectrum Lab, Breda, Netherlands).
as §1
Furthermore, to determine the intestinal absorption, the aliquots collected inside the dialysis membrane were analyzed. The concentration of these samples (from inside of the membrane) corresponds to the amount of each PC that has not passed through to the outside of the membrane.
as §2

On the set-up of data set [4]: method as in PMID 19375897. To be noted: cited from earlier work.
Details of data set [5]: method as in doi:10.1016/J.JFF.2016.08.003. To be noted: cited from earlier work.
Setting [6] is: controls (without enzymes), gastric phase.
Setting [7] is: controls (without enzymes), initial solution.
Where [8] appears, read: controls (without enzymes), intestinal phase.
[9] abbreviates: controls (without enzymes), oral phase.
Setting [10] is: samples with enzymes, after gastric digestion pH 3.0.
Setting [11] is: samples with enzymes, after intestinal digestion pH 7.0.
[12] abbreviates: samples with enzymes, gastric phase.
The mark [13] stands for this setting: samples with enzymes, intestinal phase.
[14] abbreviates: samples with enzymes, oral phase.
Setting [15] is: samples, initial ethanol:water (15% v/v) solution.
The mark [16] stands for this setting: samples with enzymes, after oral digestion.

On to `C[C@@H]1O[C@@H](O[C@H]2[C@H](Oc3cc(O)c4c(c3)O[C@H](c3ccc(O)cc3)CC4=O)O[C@H](CO)[C@@H](O)[C@@H]2O)[C@H](O)[C@H](O)[C@H]1O` [NARN, naringin], for which the entries for the “Bioaccessibility (%), oral phase (O)” value in data set [1] (2 min), in data set [1] (setting [9]) and in data set [1] (setting [14]) were 133.20 ± 16.03^ a %, 128.18 ± 14.55^ a % and 133.2%, respectively. For the same molecule, the results for the “Concentration, oral phase (O)” value in data set [1] (2 min) and in data set [1] (setting [9]) were 334.93 ± 40.32 µg/mL and 322.30 ± 36.59 µg/mL, respectively. In addition, the “Bioaccessibility (%), gastric phase (G)” value in data set [1] (setting [6]) was 132.25 ± 6.73^ a %; in data set [1] (setting [12]) it was 145.2% and 145.22 ± 28.38^ a %. Also, the “Concentration, gastric phase (G)” value in data set [1] (setting [6]) is 332.53 ± 16.91 µg/mL; in data set [1] (setting [10]) it was 365.14 ± 71.37 µg/mL. In addition, the “Concentration, initial solution (IS)” value in data set [1] (setting [7]) and in data set [1] (setting [15]) was 251.44 µg/mL in each case. Further, the “Bioaccessibility (%), initial solution (IS)” value (“Bioaccessibility (%) … (IS)” for short) in data set [1] (setting [7]) is reported as 100 ^a %; in data set [1] (samples, initial solution), 100 ^a %. Further, the “Concentration, intestinal phase (I)” value was 319.15 ± 27.85 µg/mL in data set [1] (setting [8]) and 351.21 ± 53.27 µg/mL in data set [1] (setting [11]). Besides, the “Bioaccessibility (%), intestinal phase (I)” value (shortened to “Bioaccessibility (%) … (I)”) in data set [1] (setting [13]) is 139.68% and 139.68 ± 21.19^ a %. The “Papp value of apical to basolateral direction” value in data set [2] (Caco-2, ref Tourniaiere et al. (2005)) was “low”. The “Concentration, dialysis phase (D)” value was 4.46 ± 0.44 µg/mL in data set [3] and 17.29 ± 1.75 µg/mL in data set [3] (pig).

For the molecule `O=C(CCc1ccc(O)cc1)c1c(O)cc(O)cc1O` [PH, phloretin], the “Bioaccessibility (%), oral phase (O)” value in data set [1] (2 min) was 96.46 ± 10.69^ a %; in data set [1] (setting [9]), 111.74% and 111.74 ± 7.23^ a %; in data set [1] (setting [14]), 96.46%. The “Bioaccessibility (%), gastric phase (G)” value in data set [1] (setting [6]) was 91.73% and 91.73 ± 13.24 ^a,b %; in data set [1] (setting [12]), 72.87 ± 7.62 ^a,b %. The results for the “Concentration, gastric phase (G)” value in data set [1] (setting [6]) and in data set [1] (setting [10]) were 264.55 ± 38.18 µg/mL and 210.15 ± 21.97 µg/mL, respectively. The “Concentration, initial solution (IS)” value in data set [1] (setting [7]) and in data set [1] (setting [15]) was 288.39 µg/mL throughout. For the same molecule, the “Bioaccessibility (%) … (IS)” value was 100 ^a,b % in data set [1] (setting [7]) and 100^ a % in data set [1] (samples, initial solution). Also, the “Bioaccessibility (%) … (I)” value in data set [1] (setting [8]) was 58.91% and 58.91 ± 16.19 ^b %; in data set [1] (setting [13]), 51.55% and 51.55± 11.12 ^b %. In addition, the “Concentration, intestinal phase (I)” value was 169.91 ± 46.69 µg/mL in data set [1] (setting [8]) and 148.67 ± 32.07 µg/mL in data set [1] (setting [11]). For the same molecule, the entries for the “Concentration, oral phase (O)” value in data set [1] (setting [9]) and in data set [1] (setting [16]) were 322.24 ± 20.85 µg/mL and 278.19 ± 30.82 µg/mL, respectively. The “permeability class from Papp, apical-to-basolateral direction” value (shortened to “permeability class from Papp”) in data set [2] is on record as “low-permeable”. Further, the “Concentration, dialysis phase (D)” value in data set [3] was 17.18 ± 2.01 µg/mL; in data set [3] (pig), 26.35 ± 10.09 µg/mL.

Take `O=c1c(O)c(-c2ccc(O)c(O)c2)oc2cc(O)cc(O)c12` [QUE, quercetin]: the “Bioaccessibility (%), oral phase (O)” value in data set [1] (2 min) is listed as 57.23 ± 6.98^ b %; in data set [1] (setting [14]), 57.23%. Further, the “Concentration, initial solution (IS)” value in data set [1] (setting [7]) and in data set [1] (setting [15]) was 39.89 µg/mL each time. Further, the “Bioaccessibility (%) … (IS)” value is reported as 100% in data set [1] (setting [7]) and 100^ a % in data set [1] (samples, initial solution). Moreover, the “Bioaccessibility (%) … (I)” value in data set [1] (setting [8]) was 17.59 ± 1.70%; in data set [1] (setting [13]), 18.36% and 18.36 ± 0.26^ c %. Also, the “Concentration, intestinal phase (I)” value in data set [1] (setting [8]) is 7.02 ± 0.7 µg/mL; in data set [1] (setting [11]), 7.33 ± 0.10 µg/mL. Further, the figures for the “Concentration, oral phase (O)” value in data set [1] (setting [9]) and in data set [1] (setting [16]) were 13.64** μg mL^-1 and 22.83 ± 2.78 µg/mL, respectively. For the same molecule, the “Concentration, gastric phase (G)” value in data set [1] (setting [10]) is 2.74 ± 0.63 µg/mL. In data set [1] (setting [12]), the “Bioaccessibility (%), gastric phase (G)” value was 6.87% and 6.87 ± 1.57^ c %. Further, the figures for the solubility in data set [4] (pH 1.5) and in data set [4] (pH 7.5) were 5.5 µg/mL (≈ 18.2 µM) and 28.9 µg/mL (≈ 95.6 µM), respectively. Moreover, the “permeability class from Papp” value in data set [2] was “low-permeable”. Also, in data set [3], the “Concentration, dialysis phase (D)” value is given as “below the detection limit”. In addition, the “Intestinal absorption (IA%)” value in data set [3] was “very high”.

As for `C[C@@H]1O[C@@H](OC[C@H]2O[C@@H](Oc3c(-c4ccc(O)c(O)c4)oc4cc(O)cc(O)c4c3=O)[C@H](O)[C@@H](O)[C@@H]2O)[C@H](O)[C@H](O)[C@H]1O` [RUT, rutin], the “Bioaccessibility (%), gastric phase (G)” value was 97.20 ± 2.29 ^a,b % in data set [1] (setting [6]); 98.24% and 98.24 ± 3.47^ a % in data set [1] (setting [12]). Besides, the “Concentration, gastric phase (G)” value is 317.06 ± 7.46 µg/mL in data set [1] (setting [6]) and 320.45 ± 11.33 µg/mL in data set [1] (setting [10]). Further, the “Concentration, initial solution (IS)” value in data set [1] (setting [7]) and in data set [1] (setting [15]) was 326.19 µg/mL throughout. Moreover, the “Bioaccessibility (%) … (IS)” value in data set [1] (setting [7]) is listed as 100 ^a,b %; in data set [1] (samples, initial solution), 100^ a %. The “Bioaccessibility (%) … (I)” value is 87.44 ± 5.94 ^b % in data set [1] (setting [8]); 81.45% and 81.45 ± 4.10^ a % in data set [1] (setting [13]). The “Concentration, intestinal phase (I)” value in data set [1] (setting [8]) was 285.21 ± 19.38 µg/mL; in data set [1] (setting [11]) it was 265.68 ± 13.37 µg/mL. In addition, the “Bioaccessibility (%), oral phase (O)” value is 101.57 ± 2.61^ a % in data set [1] (setting [9]); 86.33% and 86.33 ± 20.75^ a % in data set [1] (setting [14]). Besides, the entries for the “Concentration, oral phase (O)” value in data set [1] (setting [9]) and in data set [1] (setting [16]) were 331.30 ± 8.52 µg/mL and 281.60 ± 67.69 µg/mL, respectively. Besides, the “formation of metabolites during in vitro SGD (UHPLC-DAD-MSn)” value in data set [1] (samples with enzymes) was “produced a metabolite after intestinal digestion simulation”. Also, in data set [5] (after in vitro gastrointestinal digestion), the “percentage collected from inside of dialysis membrane” value was 1.65%. For the same molecule, the IA% entry in data set [5] (dialysis membrane) is listed as “about 98%”. Moreover, in data set [2], the “permeability class from Papp” value was “low-permeable”. Further, the “Concentration, dialysis phase (D)” value is 15.12 ± 5.54 µg/mL in data set [3] (controls (without enzymes), aliquot from inside the dialysis membrane) and 22.24 ± 1.52 µg/mL in data set [3] (samples with enzymes, aliquot from inside the dialysis membrane). The “Intestinal absorption (IA%)” value in data set [3] (controls (without enzymes), dialysis membrane) was 94.75% and 94.75 ± 1.72%; in data set [3] (samples with enzymes, dialysis membrane), 91.63% and 91.63 ± 0.28%.

For orientation: solubility means the dissolved amount per volume that the medium holds.
